Data as given in ChEMBL document CHEMBL5042509, “Benzophenone Glucosides and B-Type Proanthocyanidin Dimers from Zambian Cassia abbreviata and Their Trypanocidal Activities” (J Nat Prod, 2022).
Converted amounts (≈) assume the structure as drawn.

How the values were obtained:
[1] = tested on: Trypanosoma brucei rhodesiense; test: Trypanocidal activity against Trypanosoma brucei rhodesiense IL1501 assessed as parasite growth inhibition at 50 ug/ml incubated for 3 days by Celltiter-Glo luminescence assay; assay type: functional; parameters: scale not given: the % may be the effect or the level left; conditions: dose 50 µg/ml; time 3 day
[2] = tested on: Trypanosoma brucei brucei; test: Trypanocidal activity against Trypanosoma brucei brucei GUTat3.1 assessed as parasite growth inhibition incubated for 3 days by Celltiter-Glo luminescence assay; assay type: functional, organism-based; conditions: GUTat3.1, 72 h
[3] = tested on: Trypanosoma brucei gambiense; test: Trypanocidal activity against Trypanosoma brucei gambiense IL1922 assessed as parasite growth inhibition incubated for 3 days by Celltiter-Glo luminescence assay; assay type: functional, organism-based; conditions: IL1922, 72 h
[4] = tested on: Trypanosoma brucei gambiense; test: Trypanocidal activity against Trypanosoma brucei gambiense IL1922 assessed as parasite growth inhibition at 50 ug/ml incubated for 3 days by Celltiter-Glo luminescence assay; assay type: functional; parameters: scale not given: the % may be the effect or the level left; conditions: dose 50 µg/ml; time 3 day
[5] = tested on: Trypanosoma evansi; test: Trypanocidal activity against Trypanosoma evansi assessed as parasite growth inhibition incubated for 3 days by Celltiter-Glo luminescence assay; assay type: functional, organism-based; conditions: 72 h
[6] = tested on: Trypanosoma congolense; test: Trypanocidal activity against Trypanosoma congolense IL3000 assessed as parasite growth inhibition at 50 ug/ml incubated for 3 days by Celltiter-Glo luminescence assay; parameters: scale not given: the % may be the effect or the level left; conditions: dose 50 µg/ml; time 3 day
[7] = tested on: Trypanosoma congolense; test: Trypanocidal activity against Trypanosoma congolense IL3000 assessed as parasite growth inhibition incubated for 3 days by Celltiter-Glo luminescence assay; conditions: IL3000, 72 h
[8] = tested on: Trypanosoma brucei brucei; test: Trypanocidal activity against Trypanosoma brucei brucei GUTat3.1 assessed as parasite growth inhibition at 50 ug/ml incubated for 3 days by Celltiter-Glo luminescence assay; assay type: functional; parameters: scale not given: the % may be the effect or the level left; conditions: dose 50 µg/ml; time 3 day
[9] = tested on: Trypanosoma evansi; test: Trypanocidal activity against Trypanosoma evansi assessed as parasite growth inhibition at 50 ug/ml incubated for 3 days by Celltiter-Glo luminescence assay; assay type: functional; parameters: scale not given: the % may be the effect or the level left; conditions: dose 50 µg/ml; time 3 day
[10] = tested on: Trypanosoma brucei rhodesiense; test: Trypanocidal activity against Trypanosoma brucei rhodesiense assessed as parasite growth inhibition incubated for 3 days by Celltiter-Glo luminescence assay; assay type: functional, organism-based; conditions: 72 h
[11] = tested on: Trypanosoma brucei rhodesiense; test: Trypanocidal activity against Trypanosoma brucei rhodesiense IL1501 assessed as parasite growth inhibition incubated for 3 days by Celltiter-Glo luminescence assay; assay type: functional, organism-based; conditions: IL1501, 72 h
[12] = tested on: Trypanosoma brucei rhodesiense; test: Trypanocidal activity against Trypanosoma brucei rhodesiense assessed as parasite growth inhibition at 50 ug/ml incubated for 3 days by Celltiter-Glo luminescence assay; assay type: functional; parameters: scale not given: the % may be the effect or the level left; conditions: dose 50 µg/ml; time 3 day

## Oc1ccc([C@H]2Oc3cc(O)cc(O)c3C[C@@H]2O)cc1
[1]
  Activity: 96.07%
[2]
  IC50: 38.6 mg/L (≈ 141 µM)
[3]
  IC50: 46.4 mg/L (≈ 169 µM)
[4]
  Activity: 90.28%
[5]
  IC50: 14.4 mg/L (≈ 52.6 µM)
[6]
  Activity: 99.57%
[7]
  IC50: 28.3 mg/L (≈ 103 µM)
[8]
  Activity: 98.54%
[9]
  Activity: 99.7%
[10]
  IC50: 4.03 mg/L (≈ 14.7 µM)
[11]
  IC50: 45.7 mg/L (≈ 167 µM)
[12]
  Activity: 99.71%
